Data published in US20250312469A1 (CANGET BIOTEKPHARMA, priority 2024, published 2025).

Tests used:
CYP2B6 mRNA = experiment: CYP induction (mRNA) in fresh human hepatocytes
Excerpt: (§1) (2) CYP positive inducers (Table 58a) and Williams' Medium E (WME) were purchased from Sigma-Aldrich (St. Louis, MO, USA). Dulbecco's phosphate-buffered saline (DPBS, pH 7.4) was purchased from Invitrogen (Carlsbad, CA, USA). Hepatocyte culture medium (serum-free) for CYP induction was purchased from XenoTech (catalog #K2300, Lenexa, KS, USA). The CellTiter 96 AQueous ONE Solution Cell Proliferation Assay was obtained from Promega (Madison, WI, USA). All other chemicals and reagents were of analytical grade or higher. (3) Fresh human hepatocytes (Table 58b) seeded at ˜0.15 million cells/well in 48-well plates (˜0.75 million cells/mL) were purchased from Thermo Fisher Scientific (Grand Island, NY, USA) and BioreclamationIVT (Baltimore, MD, USA).
(§2) Vehicle controls were treated in parallel with hepatocyte culture medium. […] (2) After the CYP induction treatment, the cells were used for a cell viability assay. […] The absorbance of formazan, which is proportional to the number of viable cells, was measured spectrophotometrically using the CellTiter 96 AQueous ONE Solution Cell Proliferation Assay. […] (3) Total RNA was isolated from the treated cells using the RNeasy mini kit (Qiagen, Valencia, CA, USA) and treated with RNase-free DNase (Qiagen) following the manufacturer's protocols. The concentration of RNA was determined using a Qubit Fluorometer with a Qubit RNA HS assay kit (Invitrogen). cDNA was synthesized from up to 1 μg of the total RNA harvested from the cells using a QuantiTect RT kit (Qiagen). Analysis of gene expression by qPCR was performed using the LightCycler 480 System (Roche Diagnostics Corporation, Indianapolis, IN, USA).

CYP1A2 mRNA = experiment: CYP induction (mRNA) in fresh human hepatocytes
Excerpt: as §1, §2

DDX5 = DDX5 (Homo sapiens, UniProt P17844); experiment: FL118 affinity column purification and mass spectrometry; format: binding; conditions: SW620 protein lysates
Sequence of DDX5 (P17844 whole entry): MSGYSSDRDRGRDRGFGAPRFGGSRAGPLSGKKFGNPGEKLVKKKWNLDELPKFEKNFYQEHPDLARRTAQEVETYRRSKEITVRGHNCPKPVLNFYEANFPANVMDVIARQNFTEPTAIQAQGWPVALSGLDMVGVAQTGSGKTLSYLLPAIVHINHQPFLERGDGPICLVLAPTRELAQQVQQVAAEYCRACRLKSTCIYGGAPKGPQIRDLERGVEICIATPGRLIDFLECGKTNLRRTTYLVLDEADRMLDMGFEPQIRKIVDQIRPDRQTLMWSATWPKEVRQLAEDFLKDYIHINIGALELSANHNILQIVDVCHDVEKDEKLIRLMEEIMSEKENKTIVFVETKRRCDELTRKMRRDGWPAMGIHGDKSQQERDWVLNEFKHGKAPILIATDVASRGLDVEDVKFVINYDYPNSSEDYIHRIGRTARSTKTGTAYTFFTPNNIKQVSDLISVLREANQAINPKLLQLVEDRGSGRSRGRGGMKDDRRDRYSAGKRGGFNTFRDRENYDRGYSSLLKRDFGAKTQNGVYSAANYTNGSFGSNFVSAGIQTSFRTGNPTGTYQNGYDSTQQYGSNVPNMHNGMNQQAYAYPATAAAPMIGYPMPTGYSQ
Experimental: The process includes many experimental steps as described below.
Affinity purification column setup: (i) transfer the control resin slurry and the FL118-coupled resin slurry into two columns, respectively; (ii) allow resin to settle and then open the bottom cap to allow the solution to flow out to drain all the reaction solution; (iii) washing the column with 2 ml CB, and then with 2 ml ultrapure water/DMSO solution (75:25). […] Then additional 3×4 ml tris washing buffer (0.1 M Tris, pH 8.0).
After extensive washing with washing buffer, the proteins binding on the column were eluted with 8M urea buffers.
After digestion, the tryptic products were extracted twice and dried; the dried peptides were then reconstituted in 10 μL of 2% (v/v) formic acid for analysis with Liquid Chromatography Tandem Mass Spectrometry (LC-ESI-MS/MS). LC-ESI-MS/MS analysis of peptides was performed using a nano-ACQUITY UPLC system (Waters Corporation, Milford, MA) coupled through a nano-spray ionization source to a Quadrupole-Time-of-Flight (Q-ToF) Premier mass spectrometer (Micromass, Waters Corporation). […] The criteria used to identify the proteins included ion scores equal to or greater than the threshold significant ion score ([…]), and similarity between the observed protein molecular mass from gel electrophoresis and the calculated molecular mass provided in the database. […]

[1] = test system: pancreatic cancer PDX tumor (PDX14244) tissues; experiment: Ex vivo culture of pancreatic cancer PDX tumor tissue; format: cell-based, human; conditions: 7 days
Excerpt: Pancreatic cancer patient-derived xenograft (PDX) tumor (PDX14244) in vitro culture and studies: PDX14244 tumors were collected from SCID mice, and the isolated tumors were maintained in PBS solution. Then cut the fresh tumor tissues into many small pieces (e.g., 2×2×2 mm) and the left tumors were frozen for other use. The small pieces of tumor tissues were washed twice in PBS and then added onto the stiff gel prepared at the ratio of gel: PBS=1:1 in the 24-well plate (2-3 pieces per well). […] On day 3, replace the old medium content with freshly prepared same medium content. On day 7, the cultured PDX14244 tumor tissues were taken out and representative images were taken under microscopes, and the tumor tissues were transferred into a fresh 24-well plate and immediately fixed in 10% neutral buffered formalin (NBF) for 24 hours ad then replaced NBF with 70% ethanol for 1-4 days for paraffin embedding to make block cassettes for histology analysis. Tissue blocks were cut and H&E staining for tumor tissue stroma ECM stiffness (desmoplasia) observation.

CCC1(O)C(=O)OCc2c1cc1n(c2=O)Cc2cc3cc4c(cc3nc2-1)OCO4 (stereo not drawn) [FL118]
% of PB-treated Cells (CYP2B6 mRNA; Donor 1, 0.01 μM, negative values treated as zero): 0% | % of PB-treated Cells (CYP2B6 mRNA; Donor 1, 0.1 μM, negative values treated as zero): 0% | % of PB-treated Cells (CYP2B6 mRNA; Donor 1, 1 μM, negative values treated as zero): 0% | % of PB-treated Cells (CYP2B6 mRNA; Donor 3, 0.025 μM, negative values treated as zero): 0% | % of PB-treated Cells (CYP2B6 mRNA; Donor 3, 0.05 μM, negative values treated as zero): 0% | induction of CYP2B6 mRNA (CYP2B6 mRNA; donor 1, 0.01, 0.1, 1 μM): did not increase CYP2B6 mRNA | % of PB-treated Cells (CYP2B6 mRNA; donor 2, 0.001 μM): 0.70% | % of PB-treated Cells (CYP2B6 mRNA; donor 2, 0.005 μM): 0.43% | % of PB-treated Cells (CYP2B6 mRNA; donor 2, 0.01 μM): 0.11% | induction of CYP2B6 mRNA (CYP2B6 mRNA; donor 2, 0.001, 0.005, 0.01 μM): did not increase CYP2B6 mRNA | induction of CYP2B6 mRNA (CYP2B6 mRNA; donor 3, 0.025, 0.05 μM): did not increase CYP2B6 and CYP3A4 mRNA | % of OME-treated Cells (CYP1A2 mRNA; donor 1, 0.01 μM): 0.15% | induction of CYP1A2 mRNA (CYP1A2 mRNA; donor 1, 0.01 μM): < 2 fold | % of OME-treated Cells (CYP1A2 mRNA; donor 1, 0.1 μM): 1.1% | induction of CYP1A2 mRNA (CYP1A2 mRNA; donor 1, 0.1 μM): 2.0 fold | % of OME-treated Cells (CYP1A2 mRNA; donor 1, 1 μM): 2.6% | induction of CYP1A2 mRNA (CYP1A2 mRNA; donor 1, 1 μM): 3.4 fold | % of OME-treated Cells (CYP1A2 mRNA; donor 2, 0.001 μM): 0.88% | induction of CYP1A2 mRNA (CYP1A2 mRNA; donor 2, 0.001 μM): 2.3 fold | % of OME-treated Cells (CYP1A2 mRNA; donor 2, 0.005 μM): 1.0% | induction of CYP1A2 mRNA (CYP1A2 mRNA; donor 2, 0.005 μM): 2.5 fold | % of OME-treated Cells (CYP1A2 mRNA; donor 2, 0.01 μM): 2.6% | induction of CYP1A2 mRNA (CYP1A2 mRNA; donor 2, 0.01 μM): 4.9 fold | % of OME-treated Cells (CYP1A2 mRNA; donor 3, 0.025 μM): 1.6% | induction of CYP1A2 mRNA (CYP1A2 mRNA; donor 3, 0.025 μM): 2.0 fold | % of OME-treated Cells (CYP1A2 mRNA; donor 3, 0.05 μM): 1.6% | induction of CYP1A2 mRNA (CYP1A2 mRNA; donor 3, 0.05 μM): 2.1 fold | binding to DDX5 (affinity purification, MS) (DDX5): physically binds | cell and stroma spreading from tissue edge [1]: effectively inhibit the pancreatic cancer cells and stroma spreading | tumor stroma intensity (H&E) [1]: significantly tumor stroma intensity loose
